Source: ChEMBL document CHEMBL3817735 (J Med Chem, 2016)

Key:
[1] = tested on: Influenza A virus; assay: Antiviral activity against Influenza A virus (A/duck/Tsukuba/67/2005(H1N1)) infected in MDCK cells preincubated for 1 hr followed by infection measured after 19 to 20 hrs by galactosidase-based fluorescence assay and peroxidase-based chromogenic assay; format: functional, organism-based
[2] = tested on: Influenza A virus; assay: Antiviral activity against Influenza A virus (A/mallard/Hokkaido/24/2009(H5N1)) infected in MDCK cells preincubated for 1 hr followed by infection measured after 19 to 20 hrs by galactosidase-based fluorescence assay and peroxidase-based chromogenic assay; format: functional, organism-based
[3] = tested on: Influenza A virus; assay: Antiviral activity against Influenza A virus (A/duck/Tsukuba/28/2005(H6N2)) infected in MDCK cells preincubated for 1 hr followed by infection measured after 19 to 20 hrs by galactosidase-based fluorescence assay and peroxidase-based chromogenic assay; format: functional, organism-based
[4] = tested on: Influenza A virus; assay: Antiviral activity against Influenza A virus (A/duck/Tsukuba/394/2005(H5N3)) infected in MDCK cells preincubated for 1 hr followed by infection measured after 19 to 20 hrs by galactosidase-based fluorescence assay and peroxidase-based chromogenic assay; format: functional, organism-based
[5] = tested on: Influenza A virus; assay: Antiviral activity against Influenza A virus (A/duck/Tsukuba/20/2007(H8N4)) infected in MDCK cells preincubated for 1 hr followed by infection measured after 19 to 20 hrs by galactosidase-based fluorescence assay and peroxidase-based chromogenic assay; format: functional, organism-based
[6] = tested on: Influenza A virus; assay: Antiviral activity against Influenza A virus A/duck/Chiba/13/06(H12N5) infected in MDCK cells preincubated for 1 hr followed by infection measured after 19 to 20 hrs by galactosidase-based fluorescence assay and peroxidase-based chromogenic assay; format: functional, organism-based
[7] = tested on: Influenza A virus; assay: Antiviral activity against Influenza A virus (A/duck/Shiga/8/2004(H4N6)) infected in MDCK cells preincubated for 1 hr followed by infection measured after 19 to 20 hrs by galactosidase-based fluorescence assay and peroxidase-based chromogenic assay; format: functional, organism-based
[8] = tested on: Influenza A virus; assay: Antiviral activity against Influenza A virus (A/duck/Tsukuba/700/2007(H7N7)) infected in MDCK cells preincubated for 1 hr followed by infection measured after 19 to 20 hrs by galactosidase-based fluorescence assay and peroxidase-based chromogenic assay; format: functional, organism-based
[9] = tested on: Influenza A virus; assay: Antiviral activity against Influenza A virus (A/duck/Tsukuba/28/2006(H3N8)) infected in MDCK cells preincubated for 1 hr followed by infection measured after 19 to 20 hrs by galactosidase-based fluorescence assay and peroxidase-based chromogenic assay; format: functional, organism-based
[10] = tested on: Influenza A virus; assay: Antiviral activity against Influenza A virus A/duck/Tsukuba/441/05(H11N9) infected in MDCK cells preincubated for 1 hr followed by infection measured after 19 to 20 hrs by galactosidase-based fluorescence assay and peroxidase-based chromogenic assay; format: functional, organism-based
[11] = tested on: Influenza A virus; assay: Antiviral activity against Influenza A virus (A/California/04/2009(H1N1)) infected in dog AX4 cells preincubated for 1 hr followed by infection measured after 19 to 20 hrs by galactosidase-based fluorescence assay and peroxidase-based chromogenic assay; format: functional, organism-based
[12] = tested on: Influenza A virus; assay: Antiviral activity against Influenza A virus (A/Narita/1/2009(H1N1)) infected in dog AX4 cells preincubated for 1 hr followed by infection measured after 19 to 20 hrs by galactosidase-based fluorescence assay and peroxidase-based chromogenic assay; format: functional, organism-based
[13] = tested on: Influenza A virus; assay: Antiviral activity against Influenza A virus A/Yamaguchi/20/06(H1N1) infected in dog AX4 cells preincubated for 1 hr followed by infection measured after 19 to 20 hrs by galactosidase-based fluorescence assay and peroxidase-based chromogenic assay; format: functional, organism-based
[14] = tested on: Influenza A virus; assay: Antiviral activity against Influenza A virus A/Kitakyushu/10/06(H1N1) infected in dog AX4 cells preincubated for 1 hr followed by infection measured after 19 to 20 hrs by galactosidase-based fluorescence assay and peroxidase-based chromogenic assay; format: functional, organism-based
[15] = tested on: Influenza A virus; assay: Antiviral activity against Influenza A virus (A/Aichi/75/2008(H3N2)) infected in dog AX4 cells preincubated for 1 hr followed by infection measured after 19 to 20 hrs by galactosidase-based fluorescence assay and peroxidase-based chromogenic assay; format: functional, organism-based
[16] = tested on: Influenza A virus; assay: Antiviral activity against Influenza A virus (A/Aichi/102/2008(H3N2)) infected in dog AX4 cells preincubated for 1 hr followed by infection measured after 19 to 20 hrs by galactosidase-based fluorescence assay and peroxidase-based chromogenic assay; format: functional, organism-based
[17] = target: T1, Sialidase-3 (Homo sapiens, UniProt Q9UQ49); assay: Inhibition of human Neu3 expressed in HEK293T cells using GM3 as substrate incubated for 30 mins by HPLC analysis; format: cell-based, HEK-293T
T1 sequence (Q9UQ49 whole entry): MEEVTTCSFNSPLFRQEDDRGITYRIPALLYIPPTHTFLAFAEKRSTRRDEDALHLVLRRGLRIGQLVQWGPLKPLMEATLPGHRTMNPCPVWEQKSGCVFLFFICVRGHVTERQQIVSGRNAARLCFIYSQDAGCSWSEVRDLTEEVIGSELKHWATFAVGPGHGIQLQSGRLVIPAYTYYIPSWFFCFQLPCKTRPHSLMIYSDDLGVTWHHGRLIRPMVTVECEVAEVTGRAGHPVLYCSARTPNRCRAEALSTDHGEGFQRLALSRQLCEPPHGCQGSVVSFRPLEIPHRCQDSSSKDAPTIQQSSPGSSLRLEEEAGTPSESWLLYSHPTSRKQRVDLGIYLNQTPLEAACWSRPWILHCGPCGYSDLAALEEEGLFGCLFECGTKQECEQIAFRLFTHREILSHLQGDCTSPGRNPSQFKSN

[18] = target: Sialidase-1 (Homo sapiens, UniProt Q99519); assay: Inhibition of human Neu1 expressed in HEK293T cells using 4MU-Neu5Ac as substrate incubated for 30 mins by HPLC analysis; format: cell-based, HEK-293T
[19] = target: T2, Sialidase-4 (Homo sapiens, UniProt Q8WWR8); assay: Inhibition of human Neu4 expressed in HEK293T cells using 4MU-Neu5Ac as substrate incubated for 30 mins by HPLC analysis; format: cell-based, HEK-293T
T2 sequence (Q8WWR8 whole entry): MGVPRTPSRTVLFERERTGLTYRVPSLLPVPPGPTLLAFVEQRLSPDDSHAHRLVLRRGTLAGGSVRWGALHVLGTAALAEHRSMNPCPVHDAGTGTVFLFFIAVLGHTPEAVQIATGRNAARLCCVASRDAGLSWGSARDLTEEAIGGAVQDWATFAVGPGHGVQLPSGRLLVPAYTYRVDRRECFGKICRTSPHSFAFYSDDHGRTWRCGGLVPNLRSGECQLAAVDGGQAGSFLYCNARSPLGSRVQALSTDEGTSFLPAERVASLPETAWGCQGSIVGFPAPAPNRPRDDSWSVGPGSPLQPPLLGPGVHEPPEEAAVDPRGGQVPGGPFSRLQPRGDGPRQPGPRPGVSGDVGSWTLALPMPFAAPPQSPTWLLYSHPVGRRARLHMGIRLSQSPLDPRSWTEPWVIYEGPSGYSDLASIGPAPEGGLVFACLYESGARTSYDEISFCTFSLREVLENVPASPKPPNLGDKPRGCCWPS

[20] = target: T2, Sialidase-4; assay: Inhibition of human Neu4 expressed in HEK293T cells using GM3 as substrate incubated for 30 mins by HPLC analysis; format: cell-based, HEK-293T
[21] = tested on: MDCK; assay: Cytotoxicity against MDCK cells at 0.064 to 1000 uM incubated for 24 hrs by cell counting analysis; format: cell-based, Canis lupus familiaris; conditions: dog
[22] = Cytotoxicity against dog AX4 cells at 0.064 to 1000 uM incubated for 24 hrs by cell counting analysis; format: cell-based, Canis lupus familiaris; conditions: ax4, 24 h
[23] = target: T3, Neuraminidase (Influenza A virus, UniProt B4URF0); assay: Inhibition of Influenza A virus (A/duck/Tsukuba/67/2005(H1N1)) neuraminidase N1 activity using 4MU-Neu5Ac as substrate preincubated for 15 mins followed by substrate addition measured after 15 mins by fluorescence analysis
[24] = target: T3, Neuraminidase; assay: Inhibition of Influenza A virus (A/duck/Tsukuba/28/2005(H6N2)) neuraminidase N2 activity using 4MU-Neu5Ac as substrate preincubated for 15 mins followed by substrate addition measured after 15 mins by fluorescence analysis
[25] = target: T3, Neuraminidase; assay: Inhibition of Influenza A virus (A/duck/Tsukuba/394/2005(H5N3)) neuraminidase N3 activity using 4MU-Neu5Ac as substrate preincubated for 15 mins followed by substrate addition measured after 15 mins by fluorescence analysis

T3 sequence (B4URF0 whole entry): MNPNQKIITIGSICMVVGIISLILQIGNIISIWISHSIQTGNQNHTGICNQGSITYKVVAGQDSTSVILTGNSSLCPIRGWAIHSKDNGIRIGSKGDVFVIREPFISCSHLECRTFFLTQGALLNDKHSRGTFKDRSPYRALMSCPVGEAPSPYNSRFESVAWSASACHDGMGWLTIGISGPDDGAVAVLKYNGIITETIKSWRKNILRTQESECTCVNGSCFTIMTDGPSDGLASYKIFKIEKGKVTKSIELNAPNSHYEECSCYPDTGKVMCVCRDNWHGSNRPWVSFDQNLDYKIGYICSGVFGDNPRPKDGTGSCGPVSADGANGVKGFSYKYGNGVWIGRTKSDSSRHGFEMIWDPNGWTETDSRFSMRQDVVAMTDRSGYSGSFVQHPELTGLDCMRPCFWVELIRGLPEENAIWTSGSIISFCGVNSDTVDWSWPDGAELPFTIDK

SMILES	IC50 [1] [µM]	IC50 [2] [µM]	IC50 [3] [µM]	IC50 [4] [µM]	IC50 [5] [µM]	IC50 [6] [µM]	IC50 [7] [µM]	IC50 [8] [µM]	IC50 ([9]; Influenza A virus, MDCK) [µM]	IC50 [10] [µM]	IC50 [11] [µM]	IC50 [12] [µM]	IC50 [13] [µM]	IC50 [14] [µM]	IC50 [15] [nM]	IC50 [16] [nM]	IC50 [17] [µM]	IC50 [18] [µM]	IC50 [19] [µM]	IC50 [20] [µM]	other results
CCC(CC)OC[C@@H]1CC(C(=O)O)=C[C@H](N)[C@H]1NC(C)=O	0.00758	0.0282	0.00085	0.00228	0.005	0.00364	0.00087	0.00474	0.00551	0.0129	0.0003	0.00028	0.00171	3.91	0.07	0.04	–	–	–	–	–
CC(=O)N[C@H]1[C@H]([C@H](O)[C@H](O)CNC(=O)C2CC2)OC(C(=O)O)=C[C@@H]1NC(=N)N.O=C(O)C(F)(F)F	0.049	0.396	0.0118	0.0382	0.197	0.0293	0.0248	0.276	0.163	0.3	0.00604	0.00486	0.0276	0.106	1.34	1.27	> 1000	> 1000	> 1000	> 1000	Activity [21]: Non-toxic; Activity [22]: Non-toxic
CCCCC(=O)NC[C@@H](O)[C@@H](O)[C@@H]1OC(C(=O)O)=C[C@H](NC(=N)N)[C@H]1NC(C)=O.O=C(O)C(F)(F)F	2.25	8.3	0.448	5.87	5.67	25.6	1.1	5.02	47.7	5.5	0.136	0.127	0.39	0.337	24.7	40.2	> 1000	> 700	> 700	> 700	Activity [21]: Non-toxic; Activity [22]: Non-toxic
CC(=O)N[C@H]1[C@H]([C@H](O)[C@H](O)CO)OC(C(=O)O)=C[C@@H]1O [NEU5AC2EN]	–	–	–	–	–	–	–	–	–	–	–	–	–	–	–	–	50	–	–	–	IC50 [23]: 1 µM; IC50 [24]: 1 µM; IC50 [25]: 1 µM
CC(=O)N[C@H]1[C@H]([C@H](O)[C@H](O)CO)OC(C(=O)O)=C[C@@H]1NC(=N)N [ZANAMIVIR]	0.00273	0.0156	0.0065	0.0119	0.00933	0.0288	0.0109	0.0584	–	0.065	–	–	–	–	–	–	–	> 1000	–	–	IC50 ([9]; mdck): 0.0167 µM
